In patent US6875451B2, “Compositions and methods for the treatment of primary and metastatic neoplastic diseases using arsenic compounds” (PolaRx Biopharmaceuticals Inc., priority 1997, dated 2005):

Key:
Format in all cases: cell-based
[1] = tested on: IGROVI; assay: SRB growth assay, 6 days exposure, ovarian cancer; conditions: IGROV1, 6 days
Protocol: (§1) Arsenic trioxide (1 mg/ml, 10 mg/ampoule, manufactured by Taylor Pharmaceuticals, Decatur, Ill.) was tested at five concentrations each at 10-fold dilutions, i.e., 10^−5, 10^−6, 10^−7, 10^−8 and 10^−9 μg/ml.
(§2) The in vitro tests were performed by incubating the test cells in the presence of the indicated concentration of arsenic trioxide under standard culture conditions for a designated period of time, which is followed by a sulforhodamine B (SRB) protein assay to estimate cell viability or growth. The cell lines are organized into subpanels according to the origin of the cell lines, e.g., leukemia, breast cancer, etc. A description of the cell lines and method of testing is described in Monk et al. (1997, Anticancer Drug Des. 12:533-41) and Weinstein et al., (1997, Science 275:343-9), which are incorporated herein in their entirety.
(§3) The measurement of an effect is expressed in Percentage Growth (PG). The measured effect of the compound on a cell line is calculated according to one or the other of the following two expressions: If (Mean ODtest−Mean ODzero)≧0. then PG=100×(Mean ODtest−Mean ODzero)/(Mean ODctrl−Mean ODzero) If (Mean ODtest−Mean ODzero)<0. then PG=100×(Mean ODtest−Mean ODzero)/(Mean ODzero where: • Mean ODzero=the average of optical density measurements of SRB-derived color just before exposure of cells to the test compounds; • Mean ODtest=the average of optical density measurements of SRB-derived color after exposure of cells to the test compound for a designated period of time; and • Mean ODctrl=the average of optical density measurements of SRB-derived color after with no exposure of cells to the test compound for a designated period of time
(§4) The first two columns describe the subpanel (e.g., leukemia) and cell line (e.g., CCRF-CEM) involved. The next two columns list the Mean ODzero and Mean ODctrl; the next five columns list the Mean ODtest for each of five different concentrations. Each concentration is expressed as the log10 (molar or μg/ml). The next five columns list the calculated PGs for each concentration. The response parameters GI50, TGI and LC50 are interpolated values representing the concentrations at which the PG is +50, 0, and −50, respectively. Sometimes these response parameters cannot be obtained by interpolation. If, for instance, all of the PGs in a given row exceed +50, then none of the three parameters can be obtained by interpolation. In such a case, the value given for each response parameter is the highest concentration tested and is preceded by a “>” sign. This practice is extended similarly to the other possible situations where a response parameter cannot be obtained by interpolation.
(§5) In the first set, the cells from 56 different cancer cell lines were exposed to five concentrations of arsenic trioxide continuously for two days prior to performing the SRB assay. In the second set, the cells from 50 different cell lines (a subset of the first 56 cell lines, plus the renal cancer cell line 786-0) were exposed continuously for six days prior to the SRB assay.

[2] = tested on: OVCAR-8; assay: SRB growth assay, 6 days exposure, ovarian cancer; conditions: OVCAR-8, 6 days
Protocol: as §1, §2, §3, §4, §5

[3] = tested on: SK-OV-3; assay: SRB growth assay, 6 days exposure, ovarian cancer; conditions: SK-OV-3, 6 days
Protocol: as §1, §2, §3, §4, §5

[4] = tested on: SK-MEL-28; assay: SRB growth assay, 2 days exposure, melanoma
Protocol: as §1, §2, §3, §4, §5

[5] = tested on: LOX IMVI; assay: SRB growth assay, 2 days exposure, melanoma
Protocol: as §1, §2, §3, §4, §5

[6] = tested on: SK-MEL-2; assay: SRB growth assay, 2 days exposure, melanoma
Protocol: as §1, §2, §3, §4, §5

[7] = tested on: M14; assay: SRB growth assay, 2 days exposure, melanoma
Protocol: as §1, §2, §3, §4, §5

[8] = tested on: UACC-257; assay: SRB growth assay, 2 days exposure, melanoma
Protocol: as §1, §2, §3, §4, §5

[9] = tested on: SK-MEL-5; assay: SRB growth assay, 2 days exposure, melanoma
Protocol: as §1, §2, §3, §4, §5

[10] = tested on: MALME-3M; assay: SRB growth assay, 2 days exposure, melanoma
Protocol: as §1, §2, §3, §4, §5

[11] = tested on: UACC-62; assay: SRB growth assay, 2 days exposure, melanoma
Protocol: as §1, §2, §3, §4, §5

Substance: arsenic trioxide
- TGI [1]: 6.62E−06
- Mean Optical Densities ([1]; Log 10 Concentration −4.9): 0.216
- Percent Growth ([1]; Log 10 Concentration −4.9): −36%
- Mean Optical Densities ([1]; Log 10 Concentration −5.9): 2.877
- Percent Growth ([1]; Log 10 Concentration −5.9): 91%
- Mean Optical Densities ([1]; Log 10 Concentration −6.9): 3.204
- Percent Growth ([1]; Log 10 Concentration −6.9): 103%
- Mean Optical Densities ([1]; Log 10 Concentration −7.9): 3.056
- Percent Growth ([1]; Log 10 Concentration −7.9): 98%
- Mean Optical Densities ([1]; Log 10 Concentration −8.9): 3.541
- Percent Growth ([1]; Log 10 Concentration −8.9): 115%
- CC50 ([1]; read-out: LC50 (the source's name)): > 12.6 µM
- TGI [2]: 3.21E−06
- Mean Optical Densities ([2]; Log 10 Concentration −4.9): −0.001
- Percent Growth ([2]; Log 10 Concentration −4.9): −100%
- Mean Optical Densities ([2]; Log 10 Concentration −5.9): 1.437
- Percent Growth ([2]; Log 10 Concentration −5.9): 68%
- Mean Optical Densities ([2]; Log 10 Concentration −6.9): 2.242
- Percent Growth ([2]; Log 10 Concentration −6.9): 107%
- Mean Optical Densities ([2]; Log 10 Concentration −7.9): 1.848
- Percent Growth ([2]; Log 10 Concentration −7.9): 88%
- Mean Optical Densities ([2]; Log 10 Concentration −8.9): 2.272
- Percent Growth ([2]; Log 10 Concentration −8.9): 109%
- TGI [3]: 5.27E−06
- Mean Optical Densities ([3]; Log 10 Concentration −4.9): 0.020
- Percent Growth ([3]; Log 10 Concentration −4.9): −51%
- Mean Optical Densities ([3]; Log 10 Concentration −5.9): 1.247
- Percent Growth ([3]; Log 10 Concentration −5.9): 84%
- Mean Optical Densities ([3]; Log 10 Concentration −6.9): 1.461
- Percent Growth ([3]; Log 10 Concentration −6.9): 99%
- Mean Optical Densities ([3]; Log 10 Concentration −7.9): 1.410
- Percent Growth ([3]; Log 10 Concentration −7.9): 96%
- Mean Optical Densities ([3]; Log 10 Concentration −8.9): 1.445
- Percent Growth ([3]; Log 10 Concentration −8.9): 98%
- TGI [4]: >0.0126 ng/mL
- Percent Growth ([4]; log10 conc −4.9): 6%
- Percent Growth ([4]; log10 conc −5.9): 94%
- Percent Growth ([4]; log10 conc −6.9): 101%
- Percent Growth ([4]; log10 conc −7.9): 103%
- Percent Growth ([4]; log10 conc −8.9): 100%
- TGI [5]: >0.0126 ng/mL
- Percent Growth ([5]; log10 conc −4.9): 13%
- Percent Growth ([5]; log10 conc −5.9): 73%
- Percent Growth ([5]; log10 conc −6.9): 71%
- Percent Growth ([5]; log10 conc −7.9): 88%
- Percent Growth ([5]; log10 conc −8.9): 89%
- TGI [6]: 0.00881 ng/mL
- Percent Growth ([6]; log10 conc −4.9): −17%
- Percent Growth ([6]; log10 conc −5.9): 91%
- Percent Growth ([6]; log10 conc −6.9): 110%
- Percent Growth ([6]; log10 conc −7.9): 103%
- Percent Growth ([6]; log10 conc −8.9): 113%
- TGI [7]: >0.0126 ng/mL
- Percent Growth ([7]; log10 conc −4.9): 3%
- Percent Growth ([7]; log10 conc −5.9): 87%
- Percent Growth ([7]; log10 conc −6.9): 96%
- Percent Growth ([7]; log10 conc −7.9): 105%
- Percent Growth ([7]; log10 conc −8.9): 98%
- TGI [8]: >0.0126 ng/mL
- Percent Growth ([8]; log10 conc −4.9): 40%
- Percent Growth ([8]; log10 conc −5.9): 88%
- Percent Growth ([8]; log10 conc −6.9): 104%
- Percent Growth ([8]; log10 conc −7.9): 97%
- Percent Growth ([8]; log10 conc −8.9): 101%
- TGI [9]: >0.0126 ng/mL
- Percent Growth ([9]; log10 conc −4.9): 0%
- Percent Growth ([9]; log10 conc −5.9): 78%
- Percent Growth ([9]; log10 conc −6.9): 95%
- Percent Growth ([9]; log10 conc −7.9): 97%
- Percent Growth ([9]; log10 conc −8.9): 96%
- TGI [10]: 0.00602 ng/mL
- Percent Growth ([10]; log10 conc −4.9): −42%
- Percent Growth ([10]; log10 conc −5.9): 90%
- Percent Growth ([10]; log10 conc −6.9): 102%
- Percent Growth ([10]; log10 conc −7.9): 123%
- Percent Growth ([10]; log10 conc −8.9): 138%
- TGI [11]: >0.0126 ng/mL
- Percent Growth ([11]; log10 conc −4.9): 6%
- Percent Growth ([11]; log10 conc −5.9): 96%
- Percent Growth ([11]; log10 conc −6.9): 103%
- Percent Growth ([11]; log10 conc −7.9): 103%
- Percent Growth ([11]; log10 conc −8.9): 104%
